In BindingDB's records for doi:10.1021/acschembio.6b00747 (The University of Kansas, 2017):
pKd: −log10 of the molar value.

Assays:
Endoplasmin = Endoplasmin (Homo sapiens, UniProt P14625); assay: Fluorescence Polarization (FP) Assay; settings: pH 7.3
Description: (§1) Assay buffer (25 μL, 20 mM HEPES at pH 7.3, 50 mM KCl, 5 mM MgCl2, 1 mM DTT, 20 mM Na2MoO4, 0.01% NP-40, and 0.5 mg mL−1 BGG) was added to a 96-well plate (black well, black bottom) followed by the desired compound at the indicated final concentrations in DMSO (1% DMSO final concentration). Subsequently, 10 nM recombinant cGrp94/Hsp90α and 6 nM FITC-GDA were added in 50 and 25 μL assay buffer respectively, resulting in a 100 μL final volume. Plates were incubatedfor 5 h at 4 °C on a rocker. […] Percent FITC-GDA bound was determined by assigning the DMSO millipolarization unit (mP) value as the 100% bound value and 0% for FITC-GDA in assay buffer without any protein.

[1] = target: Heat shock protein HSP 90-alpha (Homo sapiens, UniProt P07900); assay: Fluorescence Polarization (FP) Assay; settings: pH 7.3
Description: as §1

Chain of Endoplasmin (P14625 whole entry): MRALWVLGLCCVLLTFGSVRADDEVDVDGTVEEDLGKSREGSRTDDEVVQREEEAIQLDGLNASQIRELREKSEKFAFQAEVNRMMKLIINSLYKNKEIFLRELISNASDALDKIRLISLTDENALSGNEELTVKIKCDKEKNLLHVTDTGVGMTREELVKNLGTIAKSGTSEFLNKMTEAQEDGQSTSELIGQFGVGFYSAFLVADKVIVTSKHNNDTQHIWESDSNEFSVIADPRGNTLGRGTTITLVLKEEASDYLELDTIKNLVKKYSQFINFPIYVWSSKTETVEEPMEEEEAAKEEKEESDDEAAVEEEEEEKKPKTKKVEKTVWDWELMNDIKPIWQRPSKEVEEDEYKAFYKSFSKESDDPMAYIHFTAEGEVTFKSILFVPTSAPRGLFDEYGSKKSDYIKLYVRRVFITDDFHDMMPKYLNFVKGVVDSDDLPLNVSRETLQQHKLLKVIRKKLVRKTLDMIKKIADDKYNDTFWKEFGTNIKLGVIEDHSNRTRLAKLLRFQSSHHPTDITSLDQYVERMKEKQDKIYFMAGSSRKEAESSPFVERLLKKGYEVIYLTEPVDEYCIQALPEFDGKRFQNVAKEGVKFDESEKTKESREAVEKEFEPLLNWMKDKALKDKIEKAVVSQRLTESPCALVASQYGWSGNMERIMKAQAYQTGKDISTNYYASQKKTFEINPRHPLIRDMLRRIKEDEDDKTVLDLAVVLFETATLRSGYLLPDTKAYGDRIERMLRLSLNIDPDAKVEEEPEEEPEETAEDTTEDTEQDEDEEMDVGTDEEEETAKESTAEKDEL

Compound	pKd (Endoplasmin)	pKd [1]
NC(=O)c1ccc(-n2cccc2Cc2cccc(O)c2)cc1NC1CCC(O)CC1 (stereo not given) [4-(2-(3-hydroxybenzyl)-1H-pyrrol-1-yl)-2-(((1r,4r)-4-hydroxycyclohexyl)amino)benzamide (8k)]	< 4.60	< 4.00
NC(=O)c1ccc(-n2cccc2CCc2ccccc2)cc1NC1CCC(O)CC1 (stereo not given) [2-(((1r,4r)-4-hydroxycyclohexyl)amino)-4-(2-phenethyl-1H-pyrrol-1-yl)benzamide (9)]	< 4.60	< 4.00
NC(=O)c1ccc(-n2cccc2-c2ccccn2)cc1NC1CCC(O)CC1 (stereo not given) [2-(((1r,4r)-4-hydroxycyclohexyl)amino)-4-(2-(pyridin-2-yl)-1H-pyrrol-1-yl)benzamide (5h)]	4.85	< 4.00
NC(=O)c1ccc(-n2cccc2Cc2ccccc2Cl)cc1NC1CCC(O)CC1 (stereo not given) [4-(2-(2-chlorobenzyl)-1H-pyrrol-1-yl)-2-(((1r,4r)-4-hydroxycyclohexyl)amino)benzamide (8b)]	6.08	< 4.00
NC(=O)c1ccc(-n2cccc2-c2ccccc2)cc1NC1CCC(O)CC1 (stereo not given) [2-(((1r,4r)-4-hydroxycyclohexyl)amino)-4-(2-phenyl-1H-pyrrol-1-yl)benzamide (5a)]	5.04	< 4.00
NC(=O)c1ccc(-n2cccc2-c2ccncc2)cc1NC1CCC(O)CC1 (stereo not given) [2-(((1r,4r)-4-hydroxycyclohexyl)amino)-4-(2-(pyridin-4-yl)-1H-pyrrol-1-yl)benzamide (5j)]	4.88	< 4.00
NC(=O)c1ccc(-n2cccc2Cc2cccc(F)c2)cc1NC1CCC(O)CC1 (stereo not given) [4-(2-(3-fluorobenzyl)-1H-pyrrol-1-yl)-2-(((1r,4r)-4-hydroxycyclohexyl)amino)benzamide (8f)]	5.34	< 4.00
NC(=O)c1ccc(-n2cccc2Cc2ccccc2Br)cc1NC1CCC(O)CC1 (stereo not given) [4-(2-(2-bromobenzyl)-1H-pyrrol-1-yl)-2-(((1r,4r)-4-hydroxycyclohexyl)amino)benzamide (8h)]	4.89	< 4.00
COc1ccccc1Cc1cccn1-c1ccc(C(N)=O)c(NC2CCC(O)CC2)c1 (stereo not given) [2-(((1r,4r)-4-hydroxycyclohexyl)amino)-4-(2-(2-methoxybenzyl)-1H-pyrrol-1-yl)benzamide (8m)]	5.94	< 4.00
Cc1ccccc1Cc1cccn1-c1ccc(C(N)=O)c(NC2CCC(O)CC2)c1 (stereo not given) [2-(((1r,4r)-4-hydroxycyclohexyl)amino)-4-(2-(2-methylbenzyl)-1H-pyrrol-1-yl)benzamide (8i)]	5.38	< 4.00
NC(=O)c1ccc(-n2cccc2-c2cccc(Cl)c2)cc1NC1CCC(O)CC1 (stereo not given) [4-(2-(3-chlorophenyl)-1H-pyrrol-1-yl)-2-(((1r,4r)-4-hydroxycyclohexyl)amino)benzamide (5f)]	–	< 4.00
NC(=O)c1ccc(-n2cccc2Cc2ccc(F)cc2)cc1NC1CCC(O)CC1 (stereo not given) [4-(2-(4-fluorobenzyl)-1H-pyrrol-1-yl)-2-(((1r,4r)-4-hydroxycyclohexyl)amino)benzamide (8g)]	5.08	< 4.00
Cc1ccccc1-c1cccn1-c1ccc(C(N)=O)c(NC2CCC(O)CC2)c1 (stereo not given) [2-(((1r,4r)-4-hydroxycyclohexyl)amino)-4-(2-(o-tolyl)-1H-pyrrol-1-yl)benzamide (5b)]	5.00	< 4.00
NC(=O)c1ccc(-n2cccc2Cc2ccncc2)cc1NC1CCC(O)CC1 (stereo not given) [2-(((1r,4r)-4-hydroxycyclohexyl)amino)-4-(2-(pyridin-4-ylmethyl)-1H-pyrrol-1-yl)benzamide (8q)]	4.88	< 4.00
NC(=O)c1ccc(-n2cccc2-c2ccccc2Cl)cc1NC1CCC(O)CC1 (stereo not given) [4-(2-(2-chlorophenyl)-1H-pyrrol-1-yl)-2-(((1r,4r)-4-hydroxycyclohexyl)amino)benzamide (5e)]	–	< 4.00
NC(=O)c1ccc(-n2cccc2Cc2ccccn2)cc1NC1CCC(O)CC1 (stereo not given) [2-(((1r,4r)-4-hydroxycyclohexyl)amino)-4-(2-(pyridin-2-ylmethyl)-1H-pyrrol-1-yl)benzamide (8o)]	4.85	< 4.00
Cc1ccc(-c2cccn2-c2ccc(C(N)=O)c(NC3CCC(O)CC3)c2)cc1 (stereo not given) [2-(((1r,4r)-4-hydroxycyclohexyl)amino)-4-(2-(p-tolyl)-1H-pyrrol-1-yl)benzamide (5d)]	5.08	< 4.00
NC(=O)c1ccc(-n2cccc2Cc2ccc(Cl)cc2)cc1NC1CCC(O)CC1 (stereo not given) [4-(2-(4-chlorobenzyl)-1H-pyrrol-1-yl)-2-(((1r,4r)-4-hydroxycyclohexyl)amino)benzamide (8d)]	< 4.60	< 4.00
Cc1cccc(-c2cccn2-c2ccc(C(N)=O)c(NC3CCC(O)CC3)c2)c1 (stereo not given) [2-(((1r,4r)-4-hydroxycyclohexyl)amino)-4-(2-(m-tolyl)-1H-pyrrol-1-yl)benzamide (5c)]	5.03	< 4.00
NC(=O)c1ccc(-n2cccc2-c2cccnc2)cc1NC1CCC(O)CC1 (stereo not given) [2-(((1r,4r)-4-hydroxycyclohexyl)amino)-4-(2-(pyridin-3-yl)-1H-pyrrol-1-yl)benzamide (5i)]	5.26	< 4.00
NC(=O)c1ccc(-n2cccc2Cc2cccc(Cl)c2)cc1NC1CCC(O)CC1 (stereo not given) [4-(2-(3-chlorobenzyl)-1H-pyrrol-1-yl)-2-(((1r,4r)-4-hydroxycyclohexyl)amino)benzamide (8c)]	5.61	< 4.00
NC(=O)c1ccc(-n2cccc2Cc2cccnc2)cc1NC1CCC(O)CC1 (stereo not given) [2-(((1r,4r)-4-hydroxycyclohexyl)amino)-4-(2-(pyridin-3-ylmethyl)-1H-pyrrol-1-yl)benzamide (8p)]	5.26	< 4.00
NC(=O)c1ccc(-n2cccc2Cc2ccccc2F)cc1NC1CCC(O)CC1 (stereo not given) [4-(2-(2-fluorobenzyl)-1H-pyrrol-1-yl)-2-(((1r,4r)-4-hydroxycyclohexyl)amino)benzamide (8e)]	6.14	< 4.00
NC(=O)c1ccc(-n2cccc2Cc2ccccc2)cc1NC1CCC(O)CC1 (stereo not given) [4-(2-benzyl-1H-pyrrol-1-yl)-2-(((1r,4r)-4-hydroxycyclohexyl)amino)benzamide (8a)]	5.95	< 4.00
NC(=O)c1ccc(-n2cccc2Cc2ccc(O)cc2)cc1NC1CCC(O)CC1 (stereo not given) [4-(2-(4-hydroxybenzyl)-1H-pyrrol-1-yl)-2-(((1r,4r)-4-hydroxycyclohexyl)amino)benzamide (8l)]	–	< 4.00
NC(=O)c1ccc(-n2cccc2Cc2c(F)cccc2F)cc1N[C@H]1CC[C@H](O)CC1 [4-(2-(2,6-difluorobenzyl)-1H-pyrrol-1-yl)-2-(((1r,4r)-4hydroxycyclohexyl)amino)benzamide (8n)]	< 4.60	–
NC(=O)c1ccc(-n2cccc2-c2ccc(Cl)cc2)cc1NC1CCC(O)CC1 (stereo not given) [4-(2-(4-chlorophenyl)-1H-pyrrol-1-yl)-2-(((1r,4r)-4-hydroxycyclohexyl)amino)benzamide (5g)]	4.97	< 4.00
